Patent publication US5488051A, “Substituted 5,6-dihydro-5-oxo-1,4-dithiino-(2,3-d)-pyridazine-2,3-dicarbonitriles, compositions containing them and their use as antimicrobials” (The Dow Chemical Company, priority 1994, dated 1996)
Values after ≈ are worked out from the molar mass of the structure shown. Where two headings read alike, the source gives them in different places.

Tests used:
Bacillus subtilis (Bs) = test: MIC for Bacillus subtilis, nutrient agar; format: cell-based, Bacillus subtilis ATCC 8473; conditions: 30° C., 48 hours, read-out: Minimum Inhibitory Concentration (MIC), Bs
Outline: (§1)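 Test compound is mixed into cooled (48° C) nutrient agar at fixed ppm steps up to 500 ppm, at neutral and alkaline pH. After 24 h drying, plates receive replicator spots of bacterial suspension at 10^8 CFU/mL and are incubated 48 h at 30° C before scoring for growth.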

[1] = tested on: Enterobacter aerogenes (Ea); test: MIC for Enterobacter aerogenes, nutrient agar; format: cell-based, Enterobacter aerogenes ATCC 13048; conditions: Klebsiella aerogenes, nutrient agar, 30° C., 48 hours, read-out: Minimum Inhibitory Concentration (MIC), Ea
Outline: as §1

Escherichia coli (Ec) = test: MIC for Escherichia coli, nutrient agar; format: cell-based, Escherichia coli ATCC 11229; conditions: 30° C., 48 hours, read-out: Minimum Inhibitory Concentration (MIC), Ec
Outline: as §1

[2] = tested on: Klebsiella pneumonias (Kp); test: MIC for Klebsiella pneumonias, nutrient agar; format: cell-based, Klebsiella pneumonias ATCC 8308; conditions: 30° C., 48 hours, read-out: Minimum Inhibitory Concentration (MIC), Kp
Outline: as §1

Proteus vulgaris (Pv) = test: MIC for Proteus vulgaris, nutrient agar; format: cell-based, Proteus vulgaris ATCC 881; conditions: 30° C., 48 hours, read-out: Minimum Inhibitory Concentration (MIC), Pv
Outline: as §1

[3] = tested on: Pseudomonas aeruginosa (PRD-10); test: MIC for Pseudomonas aeruginosa PRD-10, nutrient agar; format: cell-based, Pseudomonas aeruginosa ATCC 15442; conditions: 30° C., 48 hours, read-out: Minimum Inhibitory Concentration (MIC), PRD
Outline: as §1

[4] = tested on: Pseudomonas aeruginosa (Pa); test: MIC for Pseudomonas aeruginosa, nutrient agar; format: cell-based, Pseudomonas aeruginosa ATCC 10145; conditions: 48 hours, read-out: Minimum Inhibitory Concentration (MIC), Pa
Outline: as §1

[5] = tested on: Staphylococcus aureus (Sa); test: MIC for Staphylococcus aureus, nutrient agar; format: cell-based, Staphylococcus aureus ATCC 6538; conditions: 30° C., 48 hours, read-out: Minimum Inhibitory Concentration (MIC), Sa
Outline: as §1

Aspergillus niger (An) = test: MIC for Aspergillus niger, malt yeast agar; format: cell-based, Aspergillus niger ATCC 16404; conditions: malt yeast agar; 30° C., 72 hours for fungi; read-out: Minimum Inhibitory Concentration (MIC), An
Outline: (§2)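 Agar dilution on malt yeast agar with compound (from 1% acetone/water solution) at final 0, 1.0, 2.5, 5, 10, 25, 50, 100, 250, 500 ppm. Plates inoculated by replicator with saline suspensions (1:9 diluted) of 7-day cultures; incubated at 30 °C, read at 48 h for yeast and 72 h for fungi.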

Candida albicans (Ca) = test: MIC for Candida albicans, malt yeast agar; format: cell-based, Candida albicans ATCC 10231; conditions: malt yeast agar; 30° C., 48 hours for yeast; read-out: Minimum Inhibitory Concentration (MIC), Ca
Outline: as §2

[6] = tested on: Penicillium chrysogenum (Pc); test: MIC for Penicillium chrysogenum, malt yeast agar; format: cell-based, Penicillium chrysogenum ATCC 9480; conditions: malt yeast agar; 30° C., 72 hours for fungi; read-out: Minimum Inhibitory Concentration (MIC), PC
Outline: as §2

Saccharomyces cerevisiae = test: MIC for Saccharomyces cerevisiae, malt yeast agar; format: cell-based, Saccharomyces cerevisiae ATCC 4105; conditions: malt yeast agar, 30° C., 48 hours for yeast, read-out: Minimum Inhibitory Concentration (MIC), Sc
Outline: as §2

Trichoderma viride (Tv) = test: MIC for Trichoderma viride, malt yeast agar; format: cell-based, Trichoderma viride ATCC 8678; conditions: malt yeast agar; 30° C., 72 hours for fungi; read-out: Minimum Inhibitory Concentration (MIC), Tv
Outline: as §2

SMILES | MIC (Bacillus subtilis (Bs); pH 6.8, nutrient agar) [mg/L] | MIC (Bacillus subtilis (Bs); pH 8.2, nutrient agar) [mg/L] | MIC ([1]; pH 6.8) [mg/L] | MIC ([1]; pH 8.2) [mg/L] | MIC (Escherichia coli (Ec); pH 6.8, nutrient agar) [mg/L] | MIC (Escherichia coli (Ec); pH 8.2, nutrient agar) [mg/L] | MIC ([2]; pH 6.8, nutrient agar) [mg/L] | MIC ([2]; pH 8.2, nutrient agar) [mg/L] | MIC (Proteus vulgaris (Pv); pH 6.8, nutrient agar) [mg/L] | MIC (Proteus vulgaris (Pv); pH 8.2, nutrient agar) [mg/L] | MIC ([3]; pH 6.8, nutrient agar) [mg/L] | MIC ([3]; pH 8.2, nutrient agar) [mg/L] | MIC ([4]; pH 6.8, 30° C.) [mg/L] | MIC ([4]; pH 8.2, 30° C.) [mg/L] | MIC ([5]; pH 6.8, nutrient agar) [mg/L] | MIC ([5]; pH 8.2, nutrient agar) [mg/L] | MIC (Aspergillus niger (An)) [mg/L] | MIC (Candida albicans (Ca)) [mg/L] | MIC [6] [mg/L] | MIC (Saccharomyces cerevisiae) [mg/L] | other results
N#CC1=C(C#N)Sc2c(cnn(-c3ccc(Br)cc3)c2=O)S1 [C, 5,6-dihydro-6-(4-bromophenyl)-5-oxo-1,4-dithiino-(2,3-d)-pyridazine-2,3-dicarbonitrile] | < 10 | 100 (≈ 257 µM) | > 500 | > 500 | 100 (≈ 257 µM) | > 500 | > 500 | > 500 | 250 (≈ 642 µM) | > 500 | > 500 | > 500 | > 500 | > 500 | > 500 | > 500 | 10 (≈ 25.7 µM) | 10 (≈ 25.7 µM) | 25 (≈ 64.2 µM) | 10 (≈ 25.7 µM) | MIC (Trichoderma viride (Tv)): 25 mg/L (≈ 64.2 µM)
Cc1ccc(-n2ncc3c(c2=O)SC(C#N)=C(C#N)S3)cc1 [B, 5,6-dihydro-6-(4-methylphenyl)-5-oxo-1,4-dithiino-(2,3-d)-pyridazine-2,3-dicarbonitrile] | < 10 | 25 (≈ 77.1 µM) | > 500 | > 500 | 50 (≈ 154 µM) | > 500 | 50 (≈ 154 µM) | > 500 | 500 (≈ 1540 µM) | > 500 | > 500 | > 500 | > 500 | > 500 | < 10 | 25 (≈ 77.1 µM) | 25 (≈ 77.1 µM) | < 10 | 25 (≈ 77.1 µM) | < 10 | MIC (Trichoderma viride (Tv)): 25 mg/L (≈ 77.1 µM)
